From patent publication US20090299044A1 (priority 2006, published 2009)
pIC50: −log10 of the molar value. Bridge positions count the residues as written; N and C are the ends. Square brackets hold non-standard residues; d marks the D form. Peptide text beside a SMILES is read from it. 1Nal = N[C@@H](Cc1cccc2ccccc12)C(=O)O

Columns and labels:
human Kv1.3 (CHO) = biological target: T1, human Kv1.3 (CHO) (Homo sapiens, UniProt P22001); assay: cell-based
T1 construct: expressed in transfected cells; host or cells: CHO
T1 sequence (P22001 whole entry): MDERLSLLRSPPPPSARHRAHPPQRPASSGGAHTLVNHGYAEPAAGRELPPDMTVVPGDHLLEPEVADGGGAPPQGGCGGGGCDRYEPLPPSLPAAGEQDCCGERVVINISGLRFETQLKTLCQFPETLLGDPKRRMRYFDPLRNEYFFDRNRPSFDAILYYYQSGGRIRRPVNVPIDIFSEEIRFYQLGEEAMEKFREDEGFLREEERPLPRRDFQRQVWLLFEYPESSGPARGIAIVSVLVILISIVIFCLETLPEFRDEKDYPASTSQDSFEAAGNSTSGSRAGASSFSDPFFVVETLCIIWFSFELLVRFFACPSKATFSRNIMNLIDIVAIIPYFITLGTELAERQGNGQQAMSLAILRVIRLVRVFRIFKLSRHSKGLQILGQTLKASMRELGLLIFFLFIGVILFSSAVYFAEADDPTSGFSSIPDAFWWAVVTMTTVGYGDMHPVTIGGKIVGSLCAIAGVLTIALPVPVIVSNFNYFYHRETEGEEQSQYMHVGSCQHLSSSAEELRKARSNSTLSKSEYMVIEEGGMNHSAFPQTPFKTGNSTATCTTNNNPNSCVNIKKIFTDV

human Kv1.1 (HEK293) = biological target: T2, human Kv1.1 (HEK293) (Homo sapiens, UniProt Q09470); assay: cell-based
T2 construct: expressed in transfected cells; host or cells: HEK293
T2 sequence (Q09470 whole entry): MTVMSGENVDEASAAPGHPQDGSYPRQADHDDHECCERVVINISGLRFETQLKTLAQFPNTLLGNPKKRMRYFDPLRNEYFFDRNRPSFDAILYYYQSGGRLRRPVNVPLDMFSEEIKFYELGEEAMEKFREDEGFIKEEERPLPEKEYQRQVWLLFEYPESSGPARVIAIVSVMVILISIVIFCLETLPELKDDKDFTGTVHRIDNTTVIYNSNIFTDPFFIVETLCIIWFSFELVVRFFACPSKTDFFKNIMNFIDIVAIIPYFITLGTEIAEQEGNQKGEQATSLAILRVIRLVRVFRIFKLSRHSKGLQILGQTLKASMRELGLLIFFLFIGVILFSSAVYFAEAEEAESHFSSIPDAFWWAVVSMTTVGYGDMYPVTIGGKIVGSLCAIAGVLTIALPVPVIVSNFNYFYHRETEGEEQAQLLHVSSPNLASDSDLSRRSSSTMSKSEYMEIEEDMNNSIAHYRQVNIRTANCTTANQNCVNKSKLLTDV

For `CC[C@H](C)[C@@H]1NC(=O)[C@H](CCCCN)NC(=O)[C@@H](NC(=O)[C@H](CCCCN)NC(=O)[C@@H](NC(=O)[C@H](CC(N)=O)NC(=O)[C@@H](NC(=O)[C@@H](NC(=O)[C@@H](NC(=O)CN)C(C)C)[C@@H](C)CC)[C@@H](C)CC)C(C)C)CSSC[C@@H]2NC(=O)[C@H](CCCCN)NC(=O)CNC(=O)[C@H](Cc3ccccc3)NC(=O)[C@H](CCCNC(=N)N)NC(=O)[C@H](CCSC)NC(=O)CNC(=O)[C@H](CCC(=O)O)NC(=O)[C@H](CCCCN)NC(=O)[C@H](CCCCN)NC(=O)[C@@H]3CSSC[C@@H](C(=O)N[C@H](C(=O)N4CCC[C@H]4C(=O)N[C@@H](CCCCN)C(=O)O)[C@@H](C)O)NC(=O)[C@H](Cc4c[nH]cn4)NC(=O)[C@H](CSSC[C@H](NC(=O)[C@H](CCC(N)=O)NC(=O)[C@H](CCCNC(=N)N)NC(=O)[C@H](CO)NC1=O)C(=O)N[C@@H](CC(C)C)C(=O)N[C@@H](CCC(=O)O)C(=O)N1CCC[C@H]1C(=O)N3)NC(=O)[C@H](CCCCN)NC(=O)CNC(=O)[C@H](CC(N)=O)NC(=O)[C@H](CCSC)NC2=O` [A21E] (H-GVIINVKCKISRQCLEPCKKEGMRFGKCMNGKCHCTPK-OH; disulfide 8-28, 14-33, 18-35), the pIC50 (human Kv1.3 (CHO)) was 11.13 and the pIC50 (human Kv1.1 (HEK293)) was over 11.82.

For `CC[C@H](C)[C@@H]1NC(=O)[C@H](CCCCN)NC(=O)[C@@H](NC(=O)[C@H](CCCCN)NC(=O)[C@@H](NC(=O)[C@H](CC(N)=O)NC(=O)[C@@H](NC(=O)[C@@H](NC(=O)[C@@H](NC(=O)CN)C(C)C)[C@@H](C)CC)[C@@H](C)CC)C(C)C)CSSC[C@@H]2NC(=O)[C@H](CCCCN)NC(=O)CNC(=O)[C@H](Cc3ccccc3)NC(=O)[C@H](CCCNC(=N)N)NC(=O)[C@H](CCSC)NC(=O)CNC(=O)[C@H](CCCNC(=N)N)NC(=O)[C@H](CCCCN)NC(=O)[C@H](CCCCN)NC(=O)[C@@H]3CSSC[C@@H](C(=O)N[C@H](C(=O)N4CCC[C@H]4C(=O)N[C@@H](CCCCN)C(=O)O)[C@@H](C)O)NC(=O)[C@H](Cc4c[nH]cn4)NC(=O)[C@H](CSSC[C@H](NC(=O)[C@H](CCC(N)=O)NC(=O)[C@H](CCCNC(=N)N)NC(=O)[C@H](CO)NC1=O)C(=O)N[C@@H](CC(C)C)C(=O)N[C@@H](CCC(=O)O)C(=O)N1CCC[C@H]1C(=O)N3)NC(=O)[C@H](CCCCN)NC(=O)CNC(=O)[C@H](CC(N)=O)NC(=O)[C@H](CCSC)NC2=O` [A21R] (H-GVIINVKCKISRQCLEPCKKRGMRFGKCMNGKCHCTPK-OH; disulfide 8-28, 14-33, 18-35), the pIC50 (human Kv1.3 (CHO)) was 10.83 and the pIC50 (human Kv1.1 (HEK293)) was 11.58.

`CC[C@H](C)[C@@H]1NC(=O)[C@H](CCCCN)NC(=O)[C@@H](NC(=O)[C@H](CCCCN)NC(=O)[C@@H](NC(=O)[C@H](CC(N)=O)NC(=O)[C@@H](NC(=O)[C@@H](NC(=O)[C@@H](NC(=O)CN)C(C)C)[C@@H](C)CC)[C@@H](C)CC)C(C)C)CSSC[C@@H]2NC(=O)[C@H](CCCCN)NC(=O)CNC(=O)[C@H](Cc3ccccc3)NC(=O)[C@H](CCCNC(=N)N)NC(=O)[C@H](CCSC)NC(=O)CNC(=O)[C@H](C)NC(=O)[C@H](CCCCN)NC(=O)[C@H](CCCCN)NC(=O)[C@@H]3CSSC[C@@H](C(=O)N[C@H](C(=O)N4CCC[C@H]4C(=O)N[C@@H](CCCCN)C(=O)O)[C@@H](C)O)NC(=O)[C@H](Cc4c[nH]cn4)NC(=O)[C@H](CSSC[C@H](NC(=O)[C@H](CCC(N)=O)NC(=O)[C@H](CCCNC(=N)N)NC(=O)[C@H](CO)NC1=O)C(=O)N[C@@H](CC(C)C)C(=O)N[C@@H](C)C(=O)N1CCC[C@H]1C(=O)N3)NC(=O)[C@H](CCCCN)NC(=O)CNC(=O)[C@H](CC(N)=O)NC(=O)[C@H](CCSC)NC2=O` [E16A] (H-GVIINVKCKISRQCLAPCKKAGMRFGKCMNGKCHCTPK-OH; disulfide 8-28, 14-33, 18-35) gave a pIC50 (human Kv1.3 (CHO)) of 10.67 and a pIC50 (human Kv1.1 (HEK293)) of 11.16.

In the case of `CC[C@H](C)[C@@H]1NC(=O)[C@H](CCCCN)NC(=O)[C@@H](NC(=O)[C@H](CCCCN)NC(=O)[C@@H](NC(=O)[C@H](CC(N)=O)NC(=O)[C@@H](NC(=O)[C@@H](NC(=O)[C@@H](NC(=O)CN)C(C)C)[C@@H](C)CC)[C@@H](C)CC)C(C)C)CSSC[C@@H]2NC(=O)[C@H](CCCCN)NC(=O)CNC(=O)[C@H](Cc3ccccc3)NC(=O)[C@H](CCCNC(=N)N)NC(=O)[C@H](CCSC)NC(=O)CNC(=O)[C@H](C)NC(=O)[C@H](CCCCN)NC(=O)[C@H](CCCCN)NC(=O)[C@@H]3CSSC[C@@H](C(=O)N[C@H](C(=O)N4CCC[C@H]4C(=O)N[C@@H](CCCCN)C(=O)O)[C@@H](C)O)NC(=O)[C@H](Cc4c[nH]cn4)NC(=O)[C@H](CSSC[C@H](NC(=O)[C@H](CCC(N)=O)NC(=O)[C@H](CCCNC(=N)N)NC(=O)[C@H](CO)NC1=O)C(=O)N[C@@H](CC(C)C)C(=O)N[C@@H](Cc1cccc4ccccc14)C(=O)N1CCC[C@H]1C(=O)N3)NC(=O)[C@H](CCCCN)NC(=O)CNC(=O)[C@H](CC(N)=O)NC(=O)[C@H](CCSC)NC2=O` [E16Nal] (H-GVIINVKCKISRQCL[1Nal]PCKKAGMRFGKCMNGKCHCTPK-OH; disulfide 8-28, 14-33, 18-35), the pIC50 (human Kv1.3 (CHO)) was 11.02 and the pIC50 (human Kv1.1 (HEK293)) was over 11.82.

`CC[C@H](C)[C@@H]1NC(=O)[C@H](CCCCN)NC(=O)[C@@H](NC(=O)[C@H](CCCCN)NC(=O)[C@@H](NC(=O)[C@H](CC(N)=O)NC(=O)[C@@H](NC(=O)[C@@H](NC(=O)[C@@H](NC(=O)CN)C(C)C)[C@@H](C)CC)[C@@H](C)CC)C(C)C)CSSC[C@@H]2NC(=O)[C@H](CCCCN)NC(=O)CNC(=O)[C@H](Cc3ccccc3)NC(=O)[C@H](CCCNC(=N)N)NC(=O)[C@H](CCSC)NC(=O)CNC(=O)[C@H](C)NC(=O)[C@H](CCCCN)NC(=O)[C@H](CCCCN)NC(=O)[C@@H]3CSSC[C@@H](C(=O)N[C@H](C(=O)N4CCC[C@H]4C(=O)N[C@@H](CCCCN)C(=O)O)[C@@H](C)O)NC(=O)[C@H](Cc4c[nH]cn4)NC(=O)[C@H](CSSC[C@H](NC(=O)[C@H](CCC(N)=O)NC(=O)[C@H](CCCNC(=N)N)NC(=O)[C@H](CO)NC1=O)C(=O)N[C@@H](CC(C)C)C(=O)N[C@@H](CCCNC(=N)N)C(=O)N1CCC[C@H]1C(=O)N3)NC(=O)[C@H](CCCCN)NC(=O)CNC(=O)[C@H](CC(N)=O)NC(=O)[C@H](CCSC)NC2=O` [E16R] (H-GVIINVKCKISRQCLRPCKKAGMRFGKCMNGKCHCTPK-OH; disulfide 8-28, 14-33, 18-35) gave a pIC50 (human Kv1.3 (CHO)) of 10.98 and a pIC50 (human Kv1.1 (HEK293)) of over 11.82.

For `CC[C@H](C)[C@@H]1NC(=O)[C@H](CCCCN)NC(=O)[C@@H](NC(=O)[C@H](CCCCN)NC(=O)[C@@H](NC(=O)[C@H](CC(N)=O)NC(=O)[C@@H](NC(=O)[C@@H](NC(=O)[C@@H](NC(=O)CN)C(C)C)[C@@H](C)CC)[C@@H](C)CC)C(C)C)CSSC[C@@H]2NC(=O)[C@H](CCCCN)NC(=O)CNC(=O)[C@H](C)NC(=O)[C@H](CCCNC(=N)N)NC(=O)[C@H](CCSC)NC(=O)CNC(=O)[C@H](C)NC(=O)[C@H](CCCCN)NC(=O)[C@H](CCCCN)NC(=O)[C@@H]3CSSC[C@@H](C(=O)N[C@H](C(=O)N4CCC[C@H]4C(=O)N[C@@H](CCCCN)C(=O)O)[C@@H](C)O)NC(=O)[C@H](Cc4c[nH]cn4)NC(=O)[C@H](CSSC[C@H](NC(=O)[C@H](CCC(N)=O)NC(=O)[C@H](CCCNC(=N)N)NC(=O)[C@H](CO)NC1=O)C(=O)N[C@@H](CC(C)C)C(=O)N[C@@H](CCC(=O)O)C(=O)N1CCC[C@H]1C(=O)N3)NC(=O)[C@H](CCCCN)NC(=O)CNC(=O)[C@H](CC(N)=O)NC(=O)[C@H](CCSC)NC2=O` [F25A] (H-GVIINVKCKISRQCLEPCKKAGMRAGKCMNGKCHCTPK-OH; disulfide 8-28, 14-33, 18-35), the pIC50 (human Kv1.3 (CHO)) was 8.83 and the pIC50 (human Kv1.1 (HEK293)) was 10.33.

`CC[C@H](C)[C@@H]1NC(=O)[C@H](CCCCN)NC(=O)[C@@H](NC(=O)[C@H](CCCCN)NC(=O)[C@@H](NC(=O)[C@H](CC(N)=O)NC(=O)[C@@H](NC(=O)[C@@H](NC(=O)[C@@H](NC(=O)CN)C(C)C)[C@@H](C)CC)[C@@H](C)CC)C(C)C)CSSC[C@@H]2NC(=O)[C@H](CCCCN)NC(=O)CNC(=O)[C@H](CCC(=O)O)NC(=O)[C@H](CCCNC(=N)N)NC(=O)[C@H](CCSC)NC(=O)CNC(=O)[C@H](C)NC(=O)[C@H](CCCCN)NC(=O)[C@H](CCCCN)NC(=O)[C@@H]3CSSC[C@@H](C(=O)N[C@H](C(=O)N4CCC[C@H]4C(=O)N[C@@H](CCCCN)C(=O)O)[C@@H](C)O)NC(=O)[C@H](Cc4c[nH]cn4)NC(=O)[C@H](CSSC[C@H](NC(=O)[C@H](CCC(N)=O)NC(=O)[C@H](CCCNC(=N)N)NC(=O)[C@H](CO)NC1=O)C(=O)N[C@@H](CC(C)C)C(=O)N[C@@H](CCC(=O)O)C(=O)N1CCC[C@H]1C(=O)N3)NC(=O)[C@H](CCCCN)NC(=O)CNC(=O)[C@H](CC(N)=O)NC(=O)[C@H](CCSC)NC2=O` [F25E] (H-GVIINVKCKISRQCLEPCKKAGMREGKCMNGKCHCTPK-OH; disulfide 8-28, 14-33, 18-35) showed a pIC50 (human Kv1.3 (CHO)) of under 8.48 and a pIC50 (human Kv1.1 (HEK293)) of under 8.48.

`CC[C@H](C)[C@@H]1NC(=O)[C@H](CCCCN)NC(=O)[C@@H](NC(=O)[C@H](CCCCN)NC(=O)[C@@H](NC(=O)[C@H](CC(N)=O)NC(=O)[C@@H](NC(=O)[C@@H](NC(=O)[C@@H](NC(=O)CN)C(C)C)[C@@H](C)CC)[C@@H](C)CC)C(C)C)CSSC[C@@H]2NC(=O)[C@H](CCCCN)NC(=O)CNC(=O)[C@H](Cc3cccc4ccccc34)NC(=O)[C@H](CCCNC(=N)N)NC(=O)[C@H](CCSC)NC(=O)CNC(=O)[C@H](C)NC(=O)[C@H](CCCCN)NC(=O)[C@H](CCCCN)NC(=O)[C@@H]3CSSC[C@@H](C(=O)N[C@H](C(=O)N4CCC[C@H]4C(=O)N[C@@H](CCCCN)C(=O)O)[C@@H](C)O)NC(=O)[C@H](Cc4c[nH]cn4)NC(=O)[C@H](CSSC[C@H](NC(=O)[C@H](CCC(N)=O)NC(=O)[C@H](CCCNC(=N)N)NC(=O)[C@H](CO)NC1=O)C(=O)N[C@@H](CC(C)C)C(=O)N[C@@H](CCC(=O)O)C(=O)N1CCC[C@H]1C(=O)N3)NC(=O)[C@H](CCCCN)NC(=O)CNC(=O)[C@H](CC(N)=O)NC(=O)[C@H](CCSC)NC2=O` [F25Nal] (H-GVIINVKCKISRQCLEPCKKAGMR[1Nal]GKCMNGKCHCTPK-OH; disulfide 8-28, 14-33, 18-35) was tested, and the pIC50 (human Kv1.3 (CHO)) was 10.54 and the pIC50 (human Kv1.1 (HEK293)) was 10.29.
